Source: patent US20260217767A1, “NOVEL A4B7 THIOETHER PEPTIDE DIMER ANTAGONISTS” (Protagonist Therapeutics, Inc., priority 2014, published 2026)
pIC50: −log10 of the molar value. *1 amine or outer side, *2 acyl side, *3 side chain or, on linkers, in order; H or OH if unused. Where a SMILES comes first, the peptide text is derived from it. Bridges are numbered along the chain shown (N, C = ends). Roman numbers before positions name the chains, in order. [ ]: non-standard residue; d: D form. Phe(4-tBu) = CC(C)(C)c1ccc(C[C@H](N)C(=O)O)cc1; Bip = N[C@@H](Cc1ccc(-c2ccccc2)cc1)C(=O)O; Diglycolyl = O=C(COCC(=O)[*:2])[*:1]; NMeR = CN[C@@H](CCCNC(=N)N)C(=O)O; β3hE = N[C@@H](CCC(=O)O)CC(=O)O; X1 = O=C(c1ccccc1C[*:2])[*:1]; Pen = CC(C)(S)[C@H](N)C(=O)O; hCys = N[C@@H](CCS)C(=O)O

target: T1, RPMI 8866 cells (Homo sapiens, UniProt P13612+P26010); experiment: α4β7-MAdCAM Cell Adhesion Assay; format: cell-based; settings: thioether monomer peptides, Table 6; read-out: Cell-Adhesion A4B7
T1 sequence (P13612 34-1032): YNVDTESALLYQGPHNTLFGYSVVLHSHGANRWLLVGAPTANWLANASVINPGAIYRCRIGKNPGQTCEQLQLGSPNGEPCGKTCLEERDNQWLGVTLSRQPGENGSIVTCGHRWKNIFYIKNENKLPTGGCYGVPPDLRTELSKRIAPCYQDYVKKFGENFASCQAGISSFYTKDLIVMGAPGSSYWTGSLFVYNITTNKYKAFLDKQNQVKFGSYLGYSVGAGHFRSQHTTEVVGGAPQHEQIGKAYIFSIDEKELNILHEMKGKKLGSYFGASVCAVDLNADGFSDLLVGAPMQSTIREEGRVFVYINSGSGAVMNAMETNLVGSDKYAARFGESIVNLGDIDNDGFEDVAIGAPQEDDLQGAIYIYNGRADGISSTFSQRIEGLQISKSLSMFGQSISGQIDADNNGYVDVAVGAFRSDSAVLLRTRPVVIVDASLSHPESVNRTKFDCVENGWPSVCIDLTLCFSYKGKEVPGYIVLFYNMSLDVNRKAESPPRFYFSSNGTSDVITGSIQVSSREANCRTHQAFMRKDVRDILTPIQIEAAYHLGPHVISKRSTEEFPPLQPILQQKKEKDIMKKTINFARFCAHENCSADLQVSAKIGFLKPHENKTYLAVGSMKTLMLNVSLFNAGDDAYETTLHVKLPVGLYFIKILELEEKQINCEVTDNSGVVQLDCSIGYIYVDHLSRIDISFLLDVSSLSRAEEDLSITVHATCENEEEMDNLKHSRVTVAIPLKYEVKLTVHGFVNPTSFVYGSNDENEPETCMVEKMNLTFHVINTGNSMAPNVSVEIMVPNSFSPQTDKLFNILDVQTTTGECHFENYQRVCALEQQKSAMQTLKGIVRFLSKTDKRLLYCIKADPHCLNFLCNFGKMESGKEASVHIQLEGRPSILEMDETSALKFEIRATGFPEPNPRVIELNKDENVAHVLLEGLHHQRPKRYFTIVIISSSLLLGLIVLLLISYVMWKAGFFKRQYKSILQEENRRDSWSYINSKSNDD
T1 sequence (P26010 20-798): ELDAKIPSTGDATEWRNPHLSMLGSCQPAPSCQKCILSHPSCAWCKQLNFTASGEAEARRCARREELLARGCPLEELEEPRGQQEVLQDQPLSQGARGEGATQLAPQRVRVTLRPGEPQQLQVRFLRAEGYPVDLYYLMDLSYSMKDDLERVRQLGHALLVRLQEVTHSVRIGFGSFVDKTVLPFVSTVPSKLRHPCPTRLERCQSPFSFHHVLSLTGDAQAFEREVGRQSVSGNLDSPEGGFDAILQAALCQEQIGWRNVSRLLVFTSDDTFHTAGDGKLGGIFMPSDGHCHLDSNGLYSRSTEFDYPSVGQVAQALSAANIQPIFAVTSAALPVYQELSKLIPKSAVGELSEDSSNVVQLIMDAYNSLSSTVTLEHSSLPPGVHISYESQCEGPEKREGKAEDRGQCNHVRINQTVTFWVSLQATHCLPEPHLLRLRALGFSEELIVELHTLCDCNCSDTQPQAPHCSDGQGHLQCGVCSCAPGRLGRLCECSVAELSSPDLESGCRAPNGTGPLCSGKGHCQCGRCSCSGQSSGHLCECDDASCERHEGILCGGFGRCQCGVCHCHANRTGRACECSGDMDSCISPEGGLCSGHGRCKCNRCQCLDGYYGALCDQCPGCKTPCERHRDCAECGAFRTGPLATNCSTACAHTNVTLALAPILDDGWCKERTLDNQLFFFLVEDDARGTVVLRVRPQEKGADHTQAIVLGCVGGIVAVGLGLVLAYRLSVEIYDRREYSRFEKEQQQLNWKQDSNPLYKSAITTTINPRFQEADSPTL
How it was run: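 Peptide inhibition of adhesion measured with MAdCAM-1/Fc chimera immobilised at 200 ng/well and MnCl2-activated (1 mM) RPMI 8866 cells, 30-45 min at 37° C. Adherent cells remaining after three washes detected by MTT reduction at 570 nm, corrected for no-cell wells, giving dose response.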

Structure (SMILES)	pIC50
CC(C)C[C@@H]1NC(=O)[C@H]([C@@H](C)O)NC(=O)[C@H](CC(=O)O)NC(=O)[C@H](CO)NC(=O)[C@H](CCCNC(=N)N)N(C)C(=O)c2ccccc2CSC(C)(C)[C@@H](C(=O)N[C@@H](Cc2c[nH]c3ccccc23)C(=O)N[C@H](CCC(=O)O)C(=O)N[C@H](CO)C(N)=O)NC1=O [compound 106] (HELM PEPTIDE1{[meR].S.D.T.L.[Pen].W.[dE].[dS].[am]}|CHEM1{[O=C(c1ccccc1C[*:2])[*:1]]}$PEPTIDE1,CHEM1,1:R1-1:R1|PEPTIDE1,CHEM1,6:R3-1:R2$$$V2.0)	7.00 to 7.60
CC(C)C[C@@H]1NC(=O)[C@H]([C@@H](C)O)NC(=O)[C@H](CC(=O)O)NC(=O)[C@H](CO)NC(=O)[C@H](CCCNC(=N)N)N(C)C(=O)c2ccccc2CSC(C)(C)[C@@H](C(=O)N[C@@H](Cc2c[nH]c3ccccc23)C(=O)N[C@H](CCC(=O)O)C(=O)N[C@@H](CCC(=O)O)C(N)=O)NC1=O [compound 113] (HELM PEPTIDE1{[meR].S.D.T.L.[Pen].W.[dE].E.[am]}|CHEM1{[O=C(c1ccccc1C[*:2])[*:1]]}$PEPTIDE1,CHEM1,1:R1-1:R1|PEPTIDE1,CHEM1,6:R3-1:R2$$$V2.0)	7.00 to 7.60
CC(C)C[C@@H]1NC(=O)[C@H]([C@@H](C)O)NC(=O)[C@H](CC(=O)O)NC(=O)[C@H](CO)NC(=O)[C@H](CCCNC(=N)N)N(C)C(=O)c2ccccc2CSC(C)(C)[C@@H](C(=O)N[C@@H](Cc2c[nH]c3ccccc23)C(=O)N[C@H](CCC(=O)O)C(=O)N[C@H](Cc2ccc(O)cc2)C(N)=O)NC1=O [compound 110] (HELM PEPTIDE1{[meR].S.D.T.L.[Pen].W.[dE].[dY].[am]}|CHEM1{[O=C(c1ccccc1C[*:2])[*:1]]}$PEPTIDE1,CHEM1,1:R1-1:R1|PEPTIDE1,CHEM1,6:R3-1:R2$$$V2.0)	7.00 to 7.60
CC(C)C[C@@H]1NC(=O)[C@H]([C@@H](C)O)NC(=O)[C@H](CC(=O)O)NC(=O)[C@H](CO)NC(=O)[C@H](CCCNC(=N)N)N(C)C(=O)c2ccccc2CSC(C)(C)[C@@H](C(=O)N[C@@H](Cc2ccc3ccccc3c2)C(N)=O)NC1=O [compound 116] (HELM PEPTIDE1{[meR].S.D.T.L.[Pen].[O=C([C@H](Cc1ccc2ccccc2c1)N[*:1])[*:2]].[am]}|CHEM1{[O=C(c1ccccc1C[*:2])[*:1]]}$PEPTIDE1,CHEM1,1:R1-1:R1|PEPTIDE1,CHEM1,6:R3-1:R2$$$V2.0)	7.00 to 7.60
CC(C)C[C@@H]1NC(=O)[C@H]([C@@H](C)O)NC(=O)[C@H](CC(=O)O)NC(=O)[C@H](CO)NC(=O)[C@H](CCCNC(=N)N)N(C)C(=O)c2ccccc2CSC(C)(C)[C@@H](C(=O)N[C@@H](Cc2ccc(-c3ccccc3)cc2)C(=O)N[C@@H](CCC(=O)O)CC(N)=O)NC1=O [compound 133] ([NMeR]SDTL[Pen][Bip][β3hE]-NH2; linker N-6 via X1)	> 7.60
CC(C)C[C@@H]1NC(=O)[C@H]([C@@H](C)O)NC(=O)[C@H](CC(=O)O)NC(=O)[C@H](CO)NC(=O)[C@H](CCCNC(=N)N)N(C)C(=O)c2ccccc2CSC(C)(C)[C@@H](C(=O)N[C@@H](Cc2c[nH]c3ccccc23)C(=O)N[C@@H](CCC(=O)O)C(=O)N[C@@H](CCN)C(N)=O)NC1=O [compound 93] (HELM PEPTIDE1{[meR].S.D.T.L.[Pen].W.E.[Dab].[am]}|CHEM1{[O=C(c1ccccc1C[*:2])[*:1]]}$PEPTIDE1,CHEM1,1:R1-1:R1|PEPTIDE1,CHEM1,6:R3-1:R2$$$V2.0)	7.00 to 7.60
CC(C)C[C@@H]1NC(=O)[C@H]([C@@H](C)O)NC(=O)[C@H](CC(=O)O)NC(=O)[C@H](CO)NC(=O)[C@H](CCCNC(=N)N)N(C)C(=O)c2ccccc2CSC(C)(C)[C@@H](C(=O)N[C@@H](Cc2cccc3ccccc23)C(=O)N[C@H](CCC(=O)O)C(=O)N(C)[C@@H](CCCCN)C(N)=O)NC1=O [compound 69] (HELM PEPTIDE1{[meR].S.D.T.L.[Pen].[O=C([C@H](Cc1cccc2ccccc12)N[*:1])[*:2]].[dE].[meK].[am]}|CHEM1{[O=C(c1ccccc1C[*:2])[*:1]]}$PEPTIDE1,CHEM1,1:R1-1:R1|PEPTIDE1,CHEM1,6:R3-1:R2$$$V2.0)	6.00 to 7.00
CC(C)C[C@@H]1NC(=O)[C@H]([C@@H](C)O)NC(=O)[C@H](CC(=O)O)NC(=O)[C@H](CO)NC(=O)[C@H](CCCNC(=N)N)N(C)C(=O)c2ccccc2CSC(C)(C)[C@@H](C(=O)N[C@@H](Cc2ccc(C(C)(C)C)cc2)C(=O)N[C@@H](CCC(=O)O)CC(N)=O)NC1=O [compound 134] ([NMeR]SDTL[Pen][Phe(4-tBu)][β3hE]-NH2; linker N-6 via X1)	> 7.60
CC(=O)NCCCC[C@@H](NC(=O)[C@@H](CCC(=O)O)NC(=O)[C@H](Cc1c[nH]c2ccccc12)NC(=O)[C@H]1NC(=O)[C@H](CC(C)C)NC(=O)[C@H]([C@@H](C)O)NC(=O)[C@H](CC(=O)O)NC(=O)[C@H](CO)NC(=O)[C@H](CCCNC(=N)N)N(C)C(=O)c2ccccc2CSC1(C)C)C(N)=O [compound 81] (HELM PEPTIDE1{[meR].S.D.T.L.[Pen].W.[dE].[dK].[am]}|PEPTIDE2{[ac]}|CHEM1{[O=C(c1ccccc1C[*:2])[*:1]]}$PEPTIDE1,PEPTIDE2,9:R3-1:R2|PEPTIDE1,CHEM1,1:R1-1:R1|PEPTIDE1,CHEM1,6:R3-1:R2$$$V2.0)	7.00 to 7.60

same assay, conditions: thioether peptide dimers, Table 7; read-out: Cell-Adhesion A4B7

Structure (SMILES)	pIC50
CC(C)C[C@@H]1NC(=O)[C@H]([C@@H](C)O)NC(=O)[C@H](CC(=O)O)NC(=O)[C@H](CO)NC(=O)[C@H](CCCNC(=N)N)N(C)C(=O)c2ccccc2CSC(C)(C)[C@@H](C(=O)N[C@@H](Cc2ccc(-c3ccccc3)cc2)C(=O)N[C@H](CCC(=O)O)C(=O)N[C@H](CCCCN)C(N)=O)NC1=O [compound 178] (HELM PEPTIDE1{[meR].S.D.T.L.[Pen].[O=C([C@H](Cc1ccc(-c2ccccc2)cc1)N[*:1])[*:2]].[dE].[dK].[am]}|CHEM1{[O=C(c1ccccc1C[*:2])[*:1]]}$PEPTIDE1,CHEM1,1:R1-1:R1|PEPTIDE1,CHEM1,6:R3-1:R2$$$V2.0)	> 7.60
CC(C)C[C@@H]1NC(=O)[C@H]([C@@H](C)O)NC(=O)[C@H](CC(=O)O)NC(=O)[C@H](CO)NC(=O)[C@H](CCCNC(=N)N)N(C)C(=O)CSC[C@@H](C(=O)N[C@@H](Cc2c[nH]c3ccccc23)C(=O)N[C@H](CCCCNC(=O)COCC(=O)NCCCC[C@@H](NC(=O)[C@H](Cc2c[nH]c3ccccc23)NC(=O)[C@@H]2CSCC(=O)N(C)[C@@H](CCCNC(=N)N)C(=O)N[C@@H](CO)C(=O)N[C@@H](CC(=O)O)C(=O)N[C@@H]([C@@H](C)O)C(=O)N[C@@H](CC(C)C)C(=O)N2)C(N)=O)C(N)=O)NC1=O [compound 143]	6.00 to 7.00
CC(C)C[C@@H]1NC(=O)[C@H]([C@@H](C)O)NC(=O)[C@H](CC(=O)O)NC(=O)[C@H](CO)NC(=O)[C@H](CCCNC(=N)N)N(C)C(=O)c2ccccc2CSCC[C@@H](C(=O)N[C@@H](Cc2c[nH]c3ccccc23)C(=O)N[C@@H](CCC(=O)O)C(=O)N[C@H](CCCCNC(=O)COCC(=O)NCCCC[C@@H](NC(=O)[C@H](CCC(=O)O)NC(=O)[C@H](Cc2c[nH]c3ccccc23)NC(=O)[C@@H]2CCSCc3ccccc3C(=O)N(C)[C@@H](CCCNC(=N)N)C(=O)N[C@@H](CO)C(=O)N[C@@H](CC(=O)O)C(=O)N[C@@H]([C@@H](C)O)C(=O)N[C@@H](CC(C)C)C(=O)N2)C(N)=O)C(N)=O)NC1=O [compound 157] (I: [NMeR]SDTL[hCys]WE[dK]-NH2 / II: [NMeR]SDTL[hCys]WE[dK]-NH2; linker I:9-II:9 via Diglycolyl; linker I:N-I:6, II:N-II:6 via X1)	7.00 to 7.60
